CC1(C)[C@H](C(=O)O)N2C(=O)[C@@H](NC(=O)Cc3ccccc3)[C@H]2S1=O (stereo partly drawn)
solubility (mole fraction) (in MIBK, 278.15 K): 0.00173
solubility (mole fraction) (in MIBK, 287.85 K): 0.00184
solubility (mole fraction) (in MIBK, 295.15 K): 0.00201
solubility (mole fraction) (in MIBK, 297.95 K): 0.00213
solubility (mole fraction) (in MIBK, 303.35 K): 0.00227
solubility (mole fraction) (in MIBK, 308.05 K): 0.00238
solubility (mole fraction) (in MIBK, 313.35 K): 0.00262
solubility (mole fraction) (in MIBK, 317.65 K): 0.00278
solubility (mole fraction) (in MIBK, 323.75 K): 0.00316
solubility (mole fraction) (in ethyl acetate, 273.15 K): 0.00211
solubility (mole fraction) (in ethyl acetate, 278.15 K): 0.00222
solubility (mole fraction) (in ethyl acetate, 283.25 K): 0.00227
solubility (mole fraction) (in ethyl acetate, 288.15 K): 0.00233
solubility (mole fraction) (in ethyl acetate, 292.75 K): 0.00256
solubility (mole fraction) (in ethyl acetate, 298.55 K): 0.0028
solubility (mole fraction) (in ethyl acetate, 303.15 K): 0.00316
solubility (mole fraction) (in ethyl acetate, 307.45 K): 0.00338
solubility (mole fraction) (in ethyl acetate, 312.85 K): 0.00383
solubility (mole fraction) (in ethyl acetate, 317.65 K): 0.0044
solubility (mole fraction) (in ethyl acetate, 321.25 K): 0.00486
solubility (mole fraction) (in n-butyl acetate, 273.15 K): 0.000603
solubility (mole fraction) (in n-butyl acetate, 278.25 K): 0.000678
solubility (mole fraction) (in n-butyl acetate, 281.95 K): 0.000735
solubility (mole fraction) (in n-butyl acetate, 287.65 K): 0.000825
solubility (mole fraction) (in n-butyl acetate, 292.55 K): 0.000979
solubility (mole fraction) (in n-butyl acetate, 297.35 K): 0.0011
solubility (mole fraction) (in n-butyl acetate, 302.95 K): 0.00134
solubility (mole fraction) (in n-butyl acetate, 307.65 K): 0.00151
solubility (mole fraction) (in n-butyl acetate, 312.65 K): 0.00166
solubility (mole fraction) (in n-butyl acetate, 317.65 K): 0.00192
solubility (mole fraction) (in toluene, 283.15 K): 2.74e-05
solubility (mole fraction) (in toluene, 288.35 K): 3.68e-05
solubility (mole fraction) (in toluene, 293.95 K): 5.26e-05
solubility (mole fraction) (in toluene, 298.15 K): 6.12e-05
solubility (mole fraction) (in toluene, 303.45 K): 6.97e-05
solubility (mole fraction) (in toluene, 311.65 K): 8.7e-05
solubility (mole fraction) (in toluene, 316.85 K): 0.000105
solubility (mole fraction) (in toluene, 323.65 K): 0.000113

Source: BigSolDB 2.1
